Consider 19 molecules from PubChem BioAssay AID328 (DTP/NCI, 2004).

Structures are written as SMILES. “And” between values parts separate entries of the source, which are not always exact repeats. Equal values may be shown once. Inconclusive results and toxic doses are left out.

The subject of the assay is BDF1 mice, P388 leukemia ip, median survival T/C. As to the kind of experiment: NCI In Vivo Anticancer Drug Screen. Data for tumor model P388 Leukemia (intraperitoneal) in B6D2F1 (BDF1) mice. The settings on record: endpoint: median survival time, higher = longer survival. The method, boiled down: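 Compound-treated tumour-bearing mice were compared with vehicle-treated controls. Survival was recorded, and the value is the treated-group measurement divided by the control-group measurement (T/C).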

Setting [1] is: dose: 25.0 mg/kg/injection, schedule: Q01DX009 (ip), vehicle: saline with Tween-80.
[2] abbreviates: dose: 50.0 mg/kg/injection, schedule: Q01DX009 (ip), vehicle: saline with Tween-80.
[3] abbreviates: dose: 100.0 mg/kg/injection, schedule: Q01DX009 (ip), vehicle: saline with Tween-80.
Setting [4] is: dose: 200.0 mg/kg/injection, schedule: Q01DX009 (ip), vehicle: saline with Tween-80.
Where [5] appears, read: dose: 12.5 mg/kg/injection, schedule: Q01DX009 (ip), vehicle: saline with Tween-80.
Where [6] appears, read: dose: 50.0 mg/kg/injection, schedule: Q01DX009 (ip), vehicle: saline.
The mark [7] stands for this setting: dose: 100.0 mg/kg/injection, schedule: Q01DX009 (ip), vehicle: saline.
[8] abbreviates: dose: 200.0 mg/kg/injection, schedule: Q01DX009 (ip), vehicle: saline.
[9] abbreviates: dose: 400.0 mg/kg/injection, schedule: Q04DX003 (ip), vehicle: Klucel (hydroxypropylcellulose) (HPC).
Where [10] appears, read: dose: 25.0 mg/kg/injection, schedule: Q01DX009 (ip), vehicle: saline.

With `C(=NC(c1ccccc1)(c1ccccc1)c1ccccc1)=NC(c1ccccc1)(c1ccccc1)c1ccccc1`, the T/C is, setting by setting: (dose: 12.5 mg/kg/injection, schedule: Q01DX009 (ip), vehicle: gum acacia) 87 % of control; (dose: 25.0 mg/kg/injection, schedule: Q01DX009 (ip), vehicle: gum acacia) 100 % of control; (dose: 50.0 mg/kg/injection, schedule: Q01DX009 (ip), vehicle: gum acacia) 95 % of control; (dose: 100.0 mg/kg/injection, schedule: Q01DX009 (ip), vehicle: gum acacia) 88 % of control; (dose: 100.0 mg/kg/injection, schedule: Q04DX003 (ip), vehicle: gum acacia) 100 % of control; (dose: 200.0 mg/kg/injection, schedule: Q01DX009 (ip), vehicle: gum acacia) 88 % of control. For the same molecule, the T/C (dose: 200.0 mg/kg/injection, schedule: Q04DX003 (ip), vehicle: gum acacia) was 91 % of control.
For the molecule `CCOC(=O)NCCc1ccc(OC)c(OC)c1`, the T/C is 109 % of control under setting [1]; 124 % of control under setting [2]; 89 % of control under setting [3]; 106 % of control under setting [4]; 107 % of control (dose: 400.0 mg/kg/injection, schedule: Q01DX009 (ip), vehicle: saline with Tween-80).
In the case of `CC(=O)C(C(C)=O)C(Cl)C(C(C)=O)C(C)=O`, the T/C by setting is: (dose: 50.0 mg/kg/injection, schedule: Q01DX005 (ip), vehicle: saline with Tween-80) 99 % of control; (dose: 100.0 mg/kg/injection, schedule: Q01DX005 (ip), vehicle: saline with Tween-80) 92 % of control; (dose: 200.0 mg/kg/injection, schedule: Q01DX005 (ip), vehicle: saline with Tween-80) 99 % of control.
Consider `Cc1csc2nc(-c3ccccc3)nc(Cl)c12`, for which the T/C is 105 % of control (dose: 75.0 mg/kg/injection, schedule: Q04DX003 (ip), vehicle: saline sonified); 120 % of control (dose: 150.0 mg/kg/injection, schedule: Q04DX003 (ip), vehicle: saline sonified); 110 % of control (dose: 300.0 mg/kg/injection, schedule: Q04DX003 (ip), vehicle: saline sonified).
In the case of `S=c1sc(-c2ccc(Cl)cc2)c[se]1`, the T/C is 97 % of control (dose: 0.78 mg/kg/injection, schedule: Q01DX009 (ip), vehicle: saline with Tween-80); 109 % of control (dose: 1.56 mg/kg/injection, schedule: Q01DX009 (ip), vehicle: saline with Tween-80); 93 % of control and 100 % of control (dose: 3.13 mg/kg/injection, schedule: Q01DX009 (ip), vehicle: saline with Tween-80); 93 % of control under setting [5].
Consider `O=S(=O)(Oc1ccccc1)C(F)(F)C(F)(F)C(F)(F)C(F)(F)F`, for which the T/C under setting [6] is 109 % of control, the T/C under setting [7] is 106 % of control and the T/C under setting [8] is 109 % of control.
With `Cc1ccc(-c2cc(-c3ccccc3)n(-c3ccccc3)n2)cc1`, the T/C is, setting by setting: (dose: 264.0 mg/kg/injection, schedule: Q04DX003 (ip), vehicle: Klucel (hydroxypropylcellulose) (HPC)) 108 % of control and 109 % of control; under setting [9], 104 % of control and 116 % of control.
As for `COc1cc(NC(C)CCCN)c2ncccc2c1Oc1ccc(Cl)cc1` (configuration not stated), the T/C under setting [2] is 100 % of control.
As for `Oc1ccccc1/C=N\c1nccs1`, the T/C is 111 % of control (dose: 25.0 mg/kg/injection, schedule: Q01DX009 (ip), vehicle: Klucel (hydroxypropylcellulose) (HPC)); 96 % of control and 109 % of control (dose: 50.0 mg/kg/injection, schedule: Q01DX009 (ip), vehicle: Klucel (hydroxypropylcellulose) (HPC)); 96 % of control and 118 % of control (dose: 100.0 mg/kg/injection, schedule: Q01DX009 (ip), vehicle: Klucel (hydroxypropylcellulose) (HPC)); 122 % of control and 123 % of control (dose: 200.0 mg/kg/injection, schedule: Q01DX009 (ip), vehicle: Klucel (hydroxypropylcellulose) (HPC)).
Regarding `O=C(CCl)NCc1cnccn1`, the T/C by setting is: under setting [10], 107 % of control; under setting [6], 102 % of control; under setting [7], 108 % of control; (dose: 100.0 mg/kg/injection, schedule: Q04DX003 (ip), vehicle: saline) 94 % of control; under setting [8], 102 % of control; (dose: 200.0 mg/kg/injection, schedule: Q04DX003 (ip), vehicle: saline) 117 % of control.
As for `Nc1ncn(C2CC(O)C(CO)O2)c(=O)n1` (configuration not stated), the T/C runs as follows: (dose: 0.03 mg/kg/injection, schedule: Q01DX009 (ip), vehicle: saline) 119 % of control; (dose: 0.05 mg/kg/injection, schedule: Q01DX009 (ip), vehicle: saline) 121 % of control; (dose: 0.1 mg/kg/injection, schedule: Q01DX009 (ip), vehicle: Klucel (hydroxypropylcellulose) (HPC)) 190 % of control; (dose: 0.2 mg/kg/injection, schedule: Q01DX009 (ip), vehicle: Klucel (hydroxypropylcellulose) (HPC)) 160 % of control and 206 % of control; (dose: 0.4 mg/kg/injection, schedule: Q01DX009 (ip), vehicle: Klucel (hydroxypropylcellulose) (HPC)) 175 % of control and 190 % of control; (dose: 0.4 mg/kg/injection, schedule: Q01DX009 (ip), vehicle: saline) 150 % of control. In addition, the T/C (dose: 0.8 mg/kg/injection, schedule: Q01DX009 (ip), vehicle: Klucel (hydroxypropylcellulose) (HPC)) is 109 % of control and 212 % of control; the T/C (dose: 0.8 mg/kg/injection, schedule: Q01DX009 (ip), vehicle: saline) was 188 % of control; the T/C (dose: 1.56 mg/kg/injection, schedule: Q01DX009 (ip), vehicle: saline) was 106 % of control; the T/C (dose: 3.12 mg/kg/injection, schedule: Q01DX009 (ip), vehicle: saline) was 94 % of control; the T/C (dose: 3.12 mg/kg/injection, schedule: Q04DX003 (ip), vehicle: saline) was 235 % of control; the T/C (dose: 6.25 mg/kg/injection, schedule: Q01DX009 (ip), vehicle: saline) is 90 % of control. Besides, the T/C runs as follows: (dose: 6.25 mg/kg/injection, schedule: Q04DX003 (ip), vehicle: saline) 265 % of control; (dose: 12.5 mg/kg/injection, schedule: Q04DX003 (ip), vehicle: saline) 160 % of control.
`CC(C)(C)N1CC1CN` (configuration not stated): the T/C by setting is: under setting [6], 90 % of control; under setting [7], 90 % of control; under setting [8], 89 % of control; (dose: 400.0 mg/kg/injection, schedule: Q01DX009 (ip), vehicle: saline) 121 % of control.
Turning to `COC(=O)N1c2ccccc2C=CC1C#N` (configuration not stated), the T/C is 100 % of control under setting [5]; 90 % of control and 100 % of control under setting [1]; 100 % of control (dose: 25.0 mg/kg/injection, schedule: Q04DX003 (ip), vehicle: saline with Tween-80); 90 % of control under setting [2]; 109 % of control (dose: 50.0 mg/kg/injection, schedule: Q04DX003 (ip), vehicle: saline with Tween-80); 100 % of control under setting [3]. The T/C (dose: 100.0 mg/kg/injection, schedule: Q04DX003 (ip), vehicle: saline with Tween-80) is 100 % of control.
For the molecule `CSc1nc(N)nc2nc[nH]c12`, the T/C is 109 % of control under setting [2] and 104 % of control under setting [3].
On to `CCN(CC)CCCNc1c(OC)cc(C)c2sc3ccccc3c(=O)c12`, for which the T/C is 93 % of control (dose: 12.5 mg/kg/injection, schedule: Q01DX009 (ip), vehicle: saline); 108 % of control under setting [10]; 112 % of control under setting [6].
For the molecule `CCN(CC)CC(=O)Nc1ccc(Cl)cc1Cc1ccccc1`, the T/C is, setting by setting: under setting [2], 110 % of control; under setting [3], 106 % of control; under setting [4], 105 % of control.
As to `CC(=O)OC1=C2OC(=O)C3(C2C=CC=C1)C1C=CC=CC13` (configuration not stated), the T/C under setting [2] is 116 % of control, the T/C under setting [3] was 116 % of control and the T/C under setting [4] was 120 % of control.
Consider `Clc1ccc2c(c1)Cc1cc(N=Cc3ccccc3Cl)ccc1-2`, for which the T/C was 86 % of control (dose: 42.5 mg/kg/injection, schedule: Q01DX001 (ip), vehicle: other); 95 % of control (dose: 85.0 mg/kg/injection, schedule: Q01DX001 (ip), vehicle: other); 100 % of control (dose: 170.0 mg/kg/injection, schedule: Q01DX001 (ip), vehicle: other); 100 % of control (dose: 170.0 mg/kg/injection, schedule: Q01DX001 (ip), vehicle: saline with Tween-80).
As for `O=C1/C(=C/c2cccc([N+](=O)[O-])c2)CCc2ccccc21`, the T/C runs as follows: (dose: 100.0 mg/kg/injection, schedule: Q04DX003 (ip), vehicle: Klucel (hydroxypropylcellulose) (HPC)) 100 % of control; (dose: 200.0 mg/kg/injection, schedule: Q04DX003 (ip), vehicle: Klucel (hydroxypropylcellulose) (HPC)) 100 % of control; (dose: 400.0 mg/kg/injection, schedule: Q01DX009 (ip), vehicle: Klucel (hydroxypropylcellulose) (HPC)) 104 % of control; under setting [9], 95 % of control.
